Experimental data reported in PubChem BioAssay (NCI).
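Each compound was tested at five concentrations against cells in 96-well plates for 48 hours. At the GI50, growth is halved. Definition used: TGI = concentration required for complete inhibition of growth.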

Tests used:
Assay in all cases: DTP human tumour cell line panel, 48 h
[1] = tested on: 786-0 renal
[2] = tested on: HCC-2998 colon
[3] = tested on: RPMI-8226 leukemia
[4] = tested on: IGROV1 ovarian
[5] = tested on: SK-OV-3 ovarian
[6] = tested on: HOP-92 NSCLC
[7] = tested on: SNB-75 CNS
[8] = tested on: ACHN renal
[9] = tested on: HS 578T breast
[10] = tested on: SF-295 CNS
[11] = tested on: OVCAR-5 ovarian
[12] = tested on: MCF7 breast
[13] = tested on: HL-60(TB) leukemia
[14] = tested on: SF-539 CNS
[15] = tested on: HOP-62 NSCLC
[16] = tested on: U251 CNS
[17] = tested on: DU-145 prostate
[18] = tested on: SK-MEL-2 melanoma
[19] = tested on: UACC-62 melanoma
[20] = tested on: HT29 colon
[21] = tested on: NCI-H23 lung
[22] = tested on: SK-MEL-5 melanoma
[23] = tested on: NCI-H226 lung
[24] = tested on: UACC-257 melanoma
[25] = tested on: HCT-15 colon
[26] = tested on: CAKI-1 renal

SMILES: COc1cc(/C=C\c2cc(OC)c(OC)c(OC)c2)cc(N/C=C\C(=O)c2cc(OC)c(OC)c(OC)c2)c1OC
- GI50 [1]: 3.76 µM
- TGI [1]: > 100 µM
- GI50 [2]: 8.92 µM
- TGI [2]: > 100 µM
- GI50 [3]: 3.04 µM
- TGI [3]: > 100 µM
- GI50 [4]: 6.06 µM
- TGI [4]: > 100 µM
- GI50 [5]: 2.91 µM
- TGI [5]: > 100 µM
- GI50 [6]: 1.14 µM
- TGI [6]: 6.56 µM
- GI50 [7]: 1.39 µM
- TGI [7]: 4.81 µM
- GI50 [8]: 3.99 µM
- TGI [8]: > 100 µM
- GI50 [9]: 2.76 µM
- TGI [9]: > 100 µM
- GI50 [10]: 2.4 µM
- TGI [10]: > 100 µM
- GI50 [11]: 3.64 µM
- TGI [11]: > 100 µM
- GI50 [12]: 2.34 µM
- TGI [12]: > 100 µM
- GI50 [13]: 3.24 µM
- TGI [13]: 42.2 µM
- GI50 [14]: 1.92 µM
- TGI [14]: 4.51 µM
- GI50 [15]: 2.46 µM
- TGI [15]: > 100 µM
- GI50 [16]: 3.84 µM
- TGI [16]: > 100 µM
- GI50 [17]: 3.64 µM
- TGI [17]: > 100 µM
- GI50 [18]: 4.54 µM
- TGI [18]: > 100 µM
- GI50 [19]: 3.11 µM
- TGI [19]: > 100 µM
- GI50 [20]: 3.21 µM
- TGI [20]: 14.8 µM
- GI50 [21]: 4.22 µM
- TGI [21]: > 100 µM
- GI50 [22]: 1.69 µM
- TGI [22]: 4.48 µM
- GI50 [23]: 5.46 µM
- TGI [23]: > 100 µM
- GI50 [24]: > 100 µM
- TGI [24]: > 100 µM
- GI50 [25]: 3.08 µM
- TGI [25]: > 100 µM
- GI50 [26]: 3.37 µM
- TGI [26]: > 100 µM
